From US11648254B2 (Kumquat Biosciences Inc., priority 2021, dated 2023)
Like-named read-outs stand apart in the source and are kept apart here.

Experiments:
[1] = system: MIA PaCa-2 cells (K-Ras G12C); assay: Ras-SOS cellular growth inhibition assay (CellTiter-Glo, 3D); type: cell-based
Procedure: MIA PaCa-2 (ATCC CRL-1420) and NCI-H1792 (ATCC CRL-5895) cell lines comprise a G12C mutation can be used to assess Ras cellular signaling in vitro, e.g., in response to a subject compound of the present disclosure. […] Cell culture medium (comprising, for example, MIA PaCa-2 cells) is prepared with DMEM/Ham's F12 (e.g., with stable Glutamine, 10% FCS, and 2.5% Horse Serum. NCI-H1792 culture medium is prepared with RPMI 1640 (e.g., with stable Glutamine) and 10% FCS. A CellTiter-Glo (CTG) luminescent based assay (Promega) is used to assess growth of the cells, as a measurement of the ability of the compounds herein to inhibit Ras signaling in the cells. The cells (e.g., 800-1200 per well) are seeded in their respective culture medium in standard tissue culture-treated ultra-low attachment surface 96-well format plates (Corning Costar #3474). The day after plating, cells are treated with a dilution series (e.g., a 9 point 3-fold dilution series) of the compounds herein (e.g., approximately 125 μl final volume per well). Cell viability can be monitored (e.g., approximately 5 days later) according to the manufacturer's recommended instructions, where the CellTiter-Glo reagent is added (e.g., approximately 65 μl), vigorously mixed, covered, and placed on a plate shaker (e.g., approximately for 20 min) to ensure sufficient cell lysis prior to assessment of luminescent signal. The IC50 values are determined using the four-parameter fit. The resulting IC50 value is a measurement of the ability of the compounds herein to reduce cell growth of Ras-driven cells as representative tumor cells.

[2] = system: NCI-H1975 cells (EGFR T790M L858R); assay: EGFR-SOS cellular inhibition assay (CellTiter-Glo, 3D); type: cell-based
SOS1 = SOS1 (Homo sapiens (Human), UniProt Q07889); assay: Ras-SOS interaction assay (HTRF); type: biochemical
[3] = Homo sapiens, MIA PaCa-2, 120 h, MIA PaCa-2, 3D proliferation, about 5 days, read-out: Bio-Cell-Prolif-3D (MiaPaca2 IC50)
[4] = Homo sapiens, MIA PaCa-2, MIA PaCa-2, read-out: IC50 in inhibiting MIA PaCa-2 cell growth
[5] = Homo sapiens, 120 h, NCI-H1975, 3D proliferation, about 5 days, read-out: Bio-Cell-Prolif-3D (H1975 IC50)
[6] = Homo sapiens, NCI-H1975, EGFR T790M L858R, read-out: IC50 in inhibiting growth of NCI-H1975 cell line
[7] = K-RasG13D utilized, read-out: IC50 inhibition of SOS
[8] = K-RasG13D, read-out: IC50 value against SOS1

SOS1, sequence (Q07889 564-1049): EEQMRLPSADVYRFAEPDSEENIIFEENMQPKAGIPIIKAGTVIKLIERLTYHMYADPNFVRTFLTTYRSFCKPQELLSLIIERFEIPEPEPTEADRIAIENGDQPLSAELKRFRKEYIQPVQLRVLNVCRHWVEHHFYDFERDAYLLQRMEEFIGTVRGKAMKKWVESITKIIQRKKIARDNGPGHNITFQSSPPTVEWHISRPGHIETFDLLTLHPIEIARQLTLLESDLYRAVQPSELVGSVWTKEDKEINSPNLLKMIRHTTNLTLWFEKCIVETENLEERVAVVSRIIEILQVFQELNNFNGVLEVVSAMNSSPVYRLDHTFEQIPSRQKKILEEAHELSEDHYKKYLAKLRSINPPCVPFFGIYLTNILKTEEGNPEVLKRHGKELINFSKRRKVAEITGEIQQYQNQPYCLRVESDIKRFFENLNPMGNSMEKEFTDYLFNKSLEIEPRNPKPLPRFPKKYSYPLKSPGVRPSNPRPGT

In the case of `CNc1nc2nc(C)nc(N[C@H](C)c3cccc(C(F)F)c3F)c2cc1S(=O)(=O)C1CCN(C)CC1` [Compound 139, (R)-N4-(1-(3-(difluoromethyl)-2-fluorophenyl)ethyl)-N7,2-dimethyl-6-((1-methylpiperidin-4-yl)sulfonyl)pyrido[2,3-d]pyrimidine-4,7-diamine], the IC50 [1, 3] is reported as ≤ 1000 nM, the IC50 [1, 4] is reported as < 500 nM and the IC50 [2, 5] is reported as ≤ 1000 nM. For the same molecule, the IC50 [2, 6] was < 500 nM, the IC50 (SOS1; [7]) was < 100 nM and the IC50 (SOS1; [8]) was < 50 nM.
For `COc1nc2nc(C)nc(N[C@H](C)c3cccc(C(F)(F)F)c3C)c2cc1N1CCS(=O)(=O)CC1` [Compound 142, (R)-4-(7-methoxy-2-methyl-4-((1-(2-methyl-3-(trifluoromethyl)phenyl)ethyl)amino)pyrido[2,3-d]pyrimidin-6-yl)thiomorpholine 1,1-dioxide], the IC50 [1, 3] was ≤ 1000 nM, the IC50 [1, 4] was < 500 nM and the IC50 [2, 5] was ≤ 1000 nM. The IC50 [2, 6] was < 500 nM, the IC50 (SOS1; [7]) was < 100 nM and the IC50 (SOS1; [8]) was < 50 nM.
For `Cc1nc(N[C@H](C)c2cccc(C(F)F)c2F)c2cc(C3CCS(=O)(=O)CC3)c(N(C)C)nc2n1` [Compound 143, (R)-4-(4-((1-(3-(difluoromethyl)-2-fluorophenyl)ethyl)amino)-7-(dimethylamino)-2-methylpyrido[2,3-d]pyrimidin-6-yl)tetrahydro-2H-thiopyran 1,1-dioxide], the IC50 [1, 3] was ≤ 1000 nM, the IC50 [1, 4] was < 500 nM and the IC50 [2, 5] was ≤ 1000 nM. The IC50 [2, 6] was < 500 nM, the IC50 (SOS1; [7]) was < 100 nM and the IC50 (SOS1; [8]) was < 50 nM.
For `Cc1nc(N[C@H](C)c2cccc(C(F)F)c2F)c2cc(C3CCS(=O)(=O)CC3)c(OCCN(C)C)nc2n1` [Compound 145, (R)-4-(4-((1-(3-(difluoromethyl)-2-fluorophenyl)-ethyl)amino)-7-(2-(dimethylamino)ethoxy)-2-methylpyrido[2,3-d]pyrimidin-6-yl)tetrahydro-2H-thiopyran 1,1-dioxide], the IC50 [1, 3] was ≤ 1000 nM, the IC50 [1, 4] was < 500 nM and the IC50 [2, 5] was ≤ 1000 nM. The IC50 [2, 6] was < 500 nM, the IC50 (SOS1; [7]) was < 100 nM and the IC50 (SOS1; [8]) was < 50 nM.
For `COc1nc2nc(C)nc(N[C@H](C)c3cccc(CC(F)F)c3F)c2cc1C1CCS(=O)(=O)CC1` [Compound 147, (R)-4-(4-((1-(3-(2,2-difluoroethyl)-2-fluorophenyl)ethyl)amino)-7-methoxy-2-methylpyrido[2,3-d]pyrimidin-6-yl)tetrahydro-2H-thiopyran 1,1-dioxide], the IC50 [1, 3] was ≤ 1000 nM, the IC50 [2, 5] was ≤ 1000 nM and the IC50 [2, 6] was < 500 nM. The IC50 (SOS1; [7]) was < 100 nM and the IC50 (SOS1; [8]) was < 50 nM.
`COc1nc2nc(C)nc(N[C@H](C)c3cccc(CC(F)F)c3F)c2cc1N1CCN(C)CC1` [Compound 149, (R)-N-(1-(3-(2,2-difluoroethyl)-2-fluorophenyl)ethyl)-7-methoxy-2-methyl-6-(4-methylpiperazin-1-yl)pyrido[2,3-d] pyrimidin-4-amine] was tested, and the IC50 [1, 3] was ≤ 1000 nM, the IC50 [1, 4] was < 500 nM and the IC50 [2, 5] was ≤ 1000 nM. For the same molecule, the IC50 [2, 6] was < 500 nM, the IC50 (SOS1; [7]) was < 100 nM and the IC50 (SOS1; [8]) was < 50 nM.
`COCCOc1nc2nc(C)nc(N[C@H](C)c3cccc(C(F)F)c3F)c2cc1C1(C#N)CC1` [Compound 151, (R)-1-(4-((1-(3-(difluoromethyl)-2-fluorophenyl)ethyl)amino)-7-(2-methoxyethoxy)-2-methylpyrido[2,3-d]pyrimidin-6-yl)cyclopropane-1-carbonitrile] was tested, and the IC50 [1, 3] was ≤ 1000 nM, the IC50 [2, 5] was ≤ 1000 nM and the IC50 [2, 6] was < 500 nM. The IC50 (SOS1; [8]) was < 50 nM.
In the case of `COc1nc2ncnc(N[C@H](C)c3cccc(CC(F)F)c3F)c2cc1C1CCS(=O)(=O)CC1` [Compound 152, (R)-4-(4-((1-(3-(2,2-difluoroethyl)-2-fluorophenyl)ethyl)amino)-7-methoxypyrido[2,3-d]pyrimidin-6-yl)tetrahydro-2H-thiopyran 1,1-dioxide], the IC50 [1, 3] is reported as ≤ 1000 nM, the IC50 [2, 5] is reported as ≤ 1000 nM and the IC50 (SOS1; [7]) is reported as < 100 nM. The IC50 (SOS1; [8]) was < 50 nM.
In the case of `COc1nc2nc(C)nc(N[C@H](C)c3cccc(C(F)F)c3F)c2cc1C1CCS(=N)(=O)CC1` (stereo partly drawn) [Compound 153, 4-(4-(((R)-1-(3-(difluoromethyl)-2-fluorophenyl)ethyl)amino)-7-methoxy-2-methylpyrido[2,3-d]pyrimidin-6-yl)-1-iminohexahydro-1λ6-thiopyran 1-oxide], the IC50 [1, 3] is reported as ≤ 1000 nM, the IC50 [1, 4] is reported as < 500 nM and the IC50 [2, 5] is reported as ≤ 1000 nM. The IC50 [2, 6] was < 500 nM, the IC50 (SOS1; [7]) was < 100 nM and the IC50 (SOS1; [8]) was < 50 nM.
In the case of `COc1nc2nc(C)nc(N[C@H](C)c3cccc(C(F)F)c3F)c2cc1C1CCS(=N)(=O)CC1` (stereo partly drawn) [Compound 154, (R)-4-(4-((1-(3-(difluoromethyl)-2-fluorophenyl)ethyl)amino)-7-methoxy-2-methylpyrido[2,3-d]pyrimidin-6-yl)-1-iminohexahydro-1λ6-thiopyran 1-oxide], the IC50 ([1]; MIA PaCa-2, 3D proliferation, about 5 days, read-out: Bio-Cell-Prolif-3D (MiaPaca2 IC50)) is reported as ≤ 1000 nM, the IC50 ([1]; MIA PaCa-2, read-out: IC50 in inhibiting MIA PaCa-2 cell growth) is reported as < 500 nM and the IC50 ([2]; NCI-H1975, 3D proliferation, about 5 days, read-out: Bio-Cell-Prolif-3D (H1975 IC50)) is reported as ≤ 1000 nM. For the same molecule, the IC50 ([2]; NCI-H1975, EGFR T790M L858R, read-out: IC50 in inhibiting growth of NCI-H1975 cell line) was < 500 nM, the IC50 (SOS1; [7]) was < 100 nM and the IC50 (SOS1; [8]) was < 50 nM.
With `COCCOc1nc2nc(C)nc(N[C@H](C)c3cccc(C(F)F)c3F)c2cc1C1CCS(=O)(=O)CC1` [Compound 157, (R)-4-(4-((1-(3-(difluoromethyl)-2-fluorophenyl)ethyl)amino)-7-(2-methoxyethoxy)-2-methylpyrido[2,3-d]pyrimidin-6-yl)tetrahydro-2H-thiopyran 1,1-dioxide] the IC50 [1, 3] was ≤ 1000 nM, the IC50 [1, 4] was < 500 nM and the IC50 [2, 5] was ≤ 1000 nM. The IC50 [2, 6] was < 500 nM, the IC50 (SOS1; [7]) was < 100 nM and the IC50 (SOS1; [8]) was < 50 nM.
In the case of `COCCOc1nc2nc(C)nc(N[C@H](C)c3cccc(C(F)F)c3OCCOC)c2cc1C1CCS(=O)(=O)CC1` [Compound 158, (R)-4-(4-((1-(3-(difluoromethyl)-2-(2-methoxyethoxy)phenyl)ethyl)amino)-7-(2-methoxyethoxy)-2-methylpyrido[2,3-d]pyrimidin-6-yl)tetrahydro-2H-thiopyran 1,1-dioxide], the IC50 [1, 3] is reported as ≤ 1000 nM, the IC50 [2, 5] is reported as 1000 to 10000 nM and the IC50 (SOS1; [7]) is reported as < 100 nM.
With `COc1nc2nc(C)nc(N[C@H](C)c3cccc(C(F)(F)C4CCN(C(C)C)CC4)c3F)c2cc1C1CCN(C(C)C)CC1` [Compound 161, (R)-N-(1-(3-(difluoro(1-isopropylpiperidin-4-yl)methyl)-2-fluorophenyl)ethyl)-6-(1-isopropylpiperidin-4-yl)-7-methoxy-2-methylpyrido[2,3-d]pyrimidin-4-amine] the IC50 [1, 3] was ≤ 1000 nM, the IC50 [1, 4] was < 500 nM and the IC50 [2, 5] was ≤ 1000 nM. The IC50 [2, 6] was < 500 nM, the IC50 (SOS1; [7]) was < 100 nM and the IC50 (SOS1; [8]) was < 50 nM.
With `COc1nc2nc(C)nc(N[C@H](C)c3cccc(C(F)(F)C4CCN(C(C)C)CC4)c3F)c2cc1N1CCN(C(C)C)CC1` [Compound 163, (R)-N-(1-(3-(difluoro(1-isopropylpiperidin-4-yl)methyl)-2-fluorophenyl)ethyl)-6-(4-isopropylpiperazin-1-yl)-7-methoxy-2-methylpyrido[2,3-d]pyrimidin-4-amine] the IC50 [1, 3] was ≤ 1000 nM, the IC50 [1, 4] was < 500 nM and the IC50 [2, 5] was ≤ 1000 nM. The IC50 [2, 6] was < 500 nM, the IC50 (SOS1; [7]) was < 100 nM and the IC50 (SOS1; [8]) was < 50 nM.
In the case of `COc1nc2nc(C)nc(N[C@H](C)c3cccc(C(F)(F)F)c3F)c2cc1C1CCN(C(C)=O)CC1` [Compound 165, (R)-1-(4-(4-((1-(2-fluoro-3-(trifluoromethyl)phenyl)ethyl)amino)-7-methoxy-2-methylpyrido[2,3-d]pyrimidin-6-yl)piperidin-1-yl)ethan-1-one], the IC50 [1, 3] is reported as ≤ 1000 nM, the IC50 [2, 5] is reported as ≤ 1000 nM and the IC50 [2, 6] is reported as < 500 nM. For the same molecule, the IC50 (SOS1; [7]) was < 100 nM and the IC50 (SOS1; [8]) was < 50 nM.
